One assay deals with T1, human PLK4 (Homo sapiens, UniProt O00444).
T1 construct: amino terminal GST fusion of residues 1-391 of human PLK4; made in house; host or cells: E. coli
T1 sequence (O00444 1-391): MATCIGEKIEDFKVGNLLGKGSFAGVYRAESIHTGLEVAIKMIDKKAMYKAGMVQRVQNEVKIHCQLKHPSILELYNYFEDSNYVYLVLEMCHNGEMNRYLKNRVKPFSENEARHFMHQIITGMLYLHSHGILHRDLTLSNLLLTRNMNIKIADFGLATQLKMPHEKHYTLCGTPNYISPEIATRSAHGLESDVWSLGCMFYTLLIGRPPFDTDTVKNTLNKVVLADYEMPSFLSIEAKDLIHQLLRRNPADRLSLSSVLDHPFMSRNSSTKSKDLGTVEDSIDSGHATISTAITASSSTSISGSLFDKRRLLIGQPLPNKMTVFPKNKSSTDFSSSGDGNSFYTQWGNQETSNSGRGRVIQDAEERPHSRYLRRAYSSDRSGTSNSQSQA
In words: PLK4 Inhibition Assay (indirect ELISA). The format is biochemical. Particulars: 15 μM ATP, 4 nM GST-PLK4; read-out: PLK4 IC50 Ranges. An outline of the steps: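 IC50 values, from 4-point logistic fitting, reflect remaining activity measured by indirect ELISA. Enzyme was GST-PLK4 treated with lambda phosphatase and given a 15-minute pre-incubation with compound before ATP start.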
In general terms: ELISA stands for enzyme-linked immunosorbent assay.

For the next assay, the system named is HUV-EC-C cells. The experiment in a line: In Vitro Angiogenesis Assay (tube formation). The format is cell-based. Particulars: 4 hr incubation, 8,000 cells per well, FIG. 1. The protocol:
HUV-EC-C cells were obtained from the American Type Culture Collection (ATCC, CRL-1730), and were used at early passage for the assay. The in vitro Angiogenesis Assay Kit (Chemicon) was used according to the manufacturer's recommendation. An ice-cold mixture of ECMatrix was transferred into a precooled 96-well plate. After the matrix solution had solidified (>1 hr incubation at 37° C.), 8,000 cells were mixed with the appropriate inhibitor concentration (in 100 microliters EGM-2) and plated into each well. After incubation at 37° C. for 4 hr, tube formation was inspected. Two methods, pattern recognition and branch point counting, were used to quantify the progression of angiogenesis and expressed as a percentage of the control tube count (FIG. 1).

A further assay deals with T2, PDGFRβ (Homo sapiens, UniProt P09619).
T2 construct: purchased Millipore (assay service)
In words: Millipore kinase assay, radiolabelled phosphopeptide filter binding, IC50 estimate. Particulars: estimated from inhibition at three compound concentrations; ATP at the Km. The format is biochemical. As to the method:
(§1) Kinase assays at Millipore were performed using a radiolabelled phosphopeptide filter binding detection system, in duplicate, at each compound concentration. The ATP substrate concentration in the reactions was at the Km for each enzyme.
(§2) To allow for a more direct comparison of compound inhibition, an IC50 value was estimated from the inhibition determined at three compound concentrations. Several assumptions were made to allow this calculation using a 4 parameter non linear curve fit model, including full inhibition set at 100%, no inhibition set to 0%, and a curve fit parameter set at 1. The inflection point was reported as the estimated IC50.

The target of the next assay is FGFR1. The description is as above. The assay is classed as biochemical. The settings on record: estimated from inhibition at three compound concentrations; ATP at the Km. The protocol:
as §1, §2

The target of another assay is T3, KDR (Homo sapiens, UniProt P35968).
T3 construct: purchased Millipore (assay service)
The description is as above. The assay is classed as biochemical. Particulars: estimated from inhibition at three compound concentrations; ATP at the Km. The protocol: as §1, §2

For the next assay, the target named is T4, FLT-1 (Homo sapiens, UniProt P17948).
T4 construct: purchased Millipore (assay service)
The description is as above. The assay is classed as biochemical. Particulars: estimated from inhibition at three compound concentrations; ATP at the Km. The protocol: as §1, §2

Another assay has as its target T5, Aurora B (Homo sapiens, UniProt Q96GD4).
T5 construct: purchased Invitrogen PV3970
The experiment in a line: Aurora B Inhibition Assay (Z-Lyte). The assay is classed as biochemical. The settings on record: 128 μM ATP, 28 nM Aurora B; read-out: Aurora B IC50 Ranges. As to the method:
Aurora B inhibition was determined using the Z-Lyte assay kit from Invitrogen. The assay was performed using the recommended manufacturer's instructions with 128 μM ATP and 28 nM Aurora B (Invitrogen cat #PV3970). The % inhibition values were determined according to the manufacturer's directions and IC50 values were obtained using a non-linear 4 point logistic curve fit (XLfit4, IDBS)

For a further assay, the target named is Lyn (Homo sapiens, UniProt P07948). The experiment in a line: Millipore kinase assay, radiolabelled phosphopeptide filter binding, IC50 estimate. Further details: purchased Millipore (assay service). The settings on record: estimated from inhibition at three compound concentrations; ATP at the Km. The format is biochemical. The protocol:
as §1, §2

The target of another assay is TRKA (Homo sapiens, UniProt P04629). The assay is described as above. The format is biochemical. On the set-up: purchased Millipore (assay service). Particulars: estimated from inhibition at three compound concentrations; ATP at the Km. As to the method:
as §1, §2

For another assay, the target named is Ret (Homo sapiens, UniProt P07949). The assay is described as above. The format is biochemical. Further details: purchased Millipore (assay service). Particulars: estimated from inhibition at three compound concentrations; ATP at the Km. The protocol: as §1, §2
Ret, sequence (P07949 29-1114): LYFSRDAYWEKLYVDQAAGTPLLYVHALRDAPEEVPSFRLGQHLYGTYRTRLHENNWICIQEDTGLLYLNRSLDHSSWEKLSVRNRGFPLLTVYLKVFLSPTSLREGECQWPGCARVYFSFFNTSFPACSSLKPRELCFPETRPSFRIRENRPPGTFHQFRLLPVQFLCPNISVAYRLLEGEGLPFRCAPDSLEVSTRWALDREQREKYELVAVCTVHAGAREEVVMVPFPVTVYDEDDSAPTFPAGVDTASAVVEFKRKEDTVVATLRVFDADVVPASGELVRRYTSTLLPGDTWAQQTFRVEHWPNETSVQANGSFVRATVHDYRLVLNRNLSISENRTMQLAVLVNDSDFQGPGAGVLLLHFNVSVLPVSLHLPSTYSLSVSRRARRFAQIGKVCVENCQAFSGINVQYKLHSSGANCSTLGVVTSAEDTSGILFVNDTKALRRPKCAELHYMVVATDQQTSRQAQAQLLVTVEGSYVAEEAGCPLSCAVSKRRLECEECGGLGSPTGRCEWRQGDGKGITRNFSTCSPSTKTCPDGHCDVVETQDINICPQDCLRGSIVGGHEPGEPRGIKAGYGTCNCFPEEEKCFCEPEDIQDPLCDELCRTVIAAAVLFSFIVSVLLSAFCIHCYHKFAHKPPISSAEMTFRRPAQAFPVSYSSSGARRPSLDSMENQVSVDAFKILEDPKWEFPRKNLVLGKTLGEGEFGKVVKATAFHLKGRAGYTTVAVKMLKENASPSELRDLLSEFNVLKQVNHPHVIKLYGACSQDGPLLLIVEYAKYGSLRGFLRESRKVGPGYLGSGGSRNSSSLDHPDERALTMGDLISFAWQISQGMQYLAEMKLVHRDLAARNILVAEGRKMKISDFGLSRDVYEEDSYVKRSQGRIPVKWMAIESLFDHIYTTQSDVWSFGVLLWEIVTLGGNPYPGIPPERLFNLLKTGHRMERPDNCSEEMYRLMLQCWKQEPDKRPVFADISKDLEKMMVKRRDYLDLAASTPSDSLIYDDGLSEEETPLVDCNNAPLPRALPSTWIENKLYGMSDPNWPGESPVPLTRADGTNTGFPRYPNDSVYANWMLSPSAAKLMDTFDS
The target in a further assay is Abl (Homo sapiens, UniProt P00519). The assay is described as above. Particulars: estimated from inhibition at three compound concentrations; ATP at the Km. The format is biochemical. On the set-up: purchased Millipore (assay service). As to the method:
as §1, §2

The next assay concerns the target T6, PLK2 (Homo sapiens, UniProt Q9NYY3).
T6 construct: purchased Invitrogen PV4204
In words: PLK2 Inhibition Assay (Z-Lyte). The settings on record: 10 μM compound; read-out: PLK2 relative inhibition percentage at a dose of 10 μM. The assay is classed as biochemical. The protocol: PLK2 inhibition was determined using the Z-Lyte assay kit from Invitrogen (cat #PV3802). The assay was performed using the recommended manufacturer's instructions with 60 μM ATP and 133 nM PLK2 (Invitrogen cat #PV4204). The % inhibition values were determined according to the manufacturer's directions and IC50 values were obtained using a non-linear 4 point logistic curve fit (XLfit4, IDBS)

A further assay deals with T7, Aurora A (Homo sapiens, UniProt O14965).
T7 construct: purchased Invitrogen PV3612
T7 sequence (O14965 1-403): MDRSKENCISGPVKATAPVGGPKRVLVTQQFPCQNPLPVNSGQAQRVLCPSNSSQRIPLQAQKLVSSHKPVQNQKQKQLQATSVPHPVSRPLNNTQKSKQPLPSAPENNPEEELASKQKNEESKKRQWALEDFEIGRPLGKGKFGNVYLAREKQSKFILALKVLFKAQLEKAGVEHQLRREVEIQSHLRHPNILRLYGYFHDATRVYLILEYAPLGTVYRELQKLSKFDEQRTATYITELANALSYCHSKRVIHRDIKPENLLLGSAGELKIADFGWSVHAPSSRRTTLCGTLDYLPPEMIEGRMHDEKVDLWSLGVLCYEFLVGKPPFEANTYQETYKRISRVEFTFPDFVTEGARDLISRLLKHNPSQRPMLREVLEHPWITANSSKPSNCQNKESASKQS
The experiment in a line: Aurora A Inhibition Assay (Z-Lyte). The assay is classed as biochemical. The settings on record: 20 μM ATP, 12 nM Aurora A; read-out: Aurora A IC50 Ranges. As to the method: Aurora A inhibition was determined using the Z-Lyte assay kit from Invitrogen. The assay was performed using the recommended manufacturer's instructions with 20 μM ATP and 12 nM Aurora A (Invitrogen cat #PV3612). The % inhibition values were determined according to the manufacturer's directions and IC50 values were obtained using a non-linear 4 point logistic curve fit (XLfit4, IDBS)

“Also recorded” adds a separate entry of the source.

Here are results for one molecule from patent US8765748B2, “Indazolyl, benzimidazolyl, benzotriazolyl substituted indolinone derivatives as kinase inhibitors useful in the treatment of cancer” (University Health Network, priority 2007, dated 2014).

Lyn, sequence (P07948 whole entry): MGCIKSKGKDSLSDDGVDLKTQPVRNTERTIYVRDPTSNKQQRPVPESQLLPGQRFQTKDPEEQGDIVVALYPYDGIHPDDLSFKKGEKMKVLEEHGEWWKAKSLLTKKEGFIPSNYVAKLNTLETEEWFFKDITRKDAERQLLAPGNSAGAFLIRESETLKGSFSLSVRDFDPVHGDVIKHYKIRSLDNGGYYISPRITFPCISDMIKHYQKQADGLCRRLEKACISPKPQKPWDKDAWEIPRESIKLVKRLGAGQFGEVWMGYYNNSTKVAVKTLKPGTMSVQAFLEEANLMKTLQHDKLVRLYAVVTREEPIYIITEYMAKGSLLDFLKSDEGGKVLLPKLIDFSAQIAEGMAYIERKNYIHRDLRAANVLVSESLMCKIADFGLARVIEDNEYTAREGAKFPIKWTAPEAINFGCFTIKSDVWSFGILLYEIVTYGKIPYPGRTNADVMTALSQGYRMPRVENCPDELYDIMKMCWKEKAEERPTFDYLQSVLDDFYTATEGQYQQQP
Abl, sequence (P00519 whole entry): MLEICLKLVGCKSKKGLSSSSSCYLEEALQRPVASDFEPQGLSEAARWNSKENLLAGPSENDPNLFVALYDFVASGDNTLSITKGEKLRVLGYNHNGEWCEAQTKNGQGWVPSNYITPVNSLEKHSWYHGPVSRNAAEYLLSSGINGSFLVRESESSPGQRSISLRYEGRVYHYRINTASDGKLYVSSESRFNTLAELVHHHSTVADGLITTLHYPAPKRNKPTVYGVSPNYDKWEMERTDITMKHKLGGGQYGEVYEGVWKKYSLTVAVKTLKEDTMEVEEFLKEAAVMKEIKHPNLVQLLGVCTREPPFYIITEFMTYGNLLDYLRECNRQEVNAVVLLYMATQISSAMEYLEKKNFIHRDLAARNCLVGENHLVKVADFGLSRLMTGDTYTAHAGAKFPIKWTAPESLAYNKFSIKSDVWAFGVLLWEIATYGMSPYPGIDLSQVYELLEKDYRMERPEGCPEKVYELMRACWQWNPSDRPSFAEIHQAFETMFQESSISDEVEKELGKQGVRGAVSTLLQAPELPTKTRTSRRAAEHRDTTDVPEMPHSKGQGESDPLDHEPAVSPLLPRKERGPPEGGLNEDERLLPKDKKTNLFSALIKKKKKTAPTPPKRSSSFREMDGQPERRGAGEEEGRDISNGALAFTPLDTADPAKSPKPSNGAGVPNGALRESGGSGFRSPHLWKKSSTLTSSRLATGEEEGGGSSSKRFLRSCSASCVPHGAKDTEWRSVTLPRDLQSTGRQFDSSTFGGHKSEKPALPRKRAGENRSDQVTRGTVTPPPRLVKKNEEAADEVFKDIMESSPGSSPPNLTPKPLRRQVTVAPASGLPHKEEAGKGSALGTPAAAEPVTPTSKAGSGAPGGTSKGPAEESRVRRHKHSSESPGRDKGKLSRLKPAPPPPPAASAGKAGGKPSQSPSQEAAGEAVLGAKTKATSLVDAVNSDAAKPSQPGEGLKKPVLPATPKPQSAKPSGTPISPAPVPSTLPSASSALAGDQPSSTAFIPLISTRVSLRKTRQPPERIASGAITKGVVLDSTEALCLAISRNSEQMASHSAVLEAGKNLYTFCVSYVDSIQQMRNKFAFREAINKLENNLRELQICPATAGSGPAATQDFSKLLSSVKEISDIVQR
T6 sequence (Q9NYY3 whole entry): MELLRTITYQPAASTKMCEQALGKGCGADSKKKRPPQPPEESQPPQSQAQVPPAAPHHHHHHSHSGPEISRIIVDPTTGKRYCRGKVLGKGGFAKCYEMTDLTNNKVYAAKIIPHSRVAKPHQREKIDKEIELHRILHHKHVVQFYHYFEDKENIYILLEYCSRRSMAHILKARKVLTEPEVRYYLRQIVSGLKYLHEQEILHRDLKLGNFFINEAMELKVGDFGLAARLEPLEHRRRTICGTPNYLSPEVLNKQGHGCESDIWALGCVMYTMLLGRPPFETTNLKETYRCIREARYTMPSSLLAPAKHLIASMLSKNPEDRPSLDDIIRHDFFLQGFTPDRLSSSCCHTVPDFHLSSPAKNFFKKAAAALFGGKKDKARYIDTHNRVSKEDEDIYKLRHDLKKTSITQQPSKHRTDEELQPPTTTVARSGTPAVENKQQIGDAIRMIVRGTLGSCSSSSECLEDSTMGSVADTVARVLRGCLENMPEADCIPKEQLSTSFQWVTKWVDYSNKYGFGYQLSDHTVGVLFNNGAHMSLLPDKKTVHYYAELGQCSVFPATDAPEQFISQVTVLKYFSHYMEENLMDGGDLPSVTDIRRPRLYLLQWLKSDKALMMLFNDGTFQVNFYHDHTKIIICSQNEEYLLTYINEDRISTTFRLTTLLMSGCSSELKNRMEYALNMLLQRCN
TRKA, sequence (P04629 33-796): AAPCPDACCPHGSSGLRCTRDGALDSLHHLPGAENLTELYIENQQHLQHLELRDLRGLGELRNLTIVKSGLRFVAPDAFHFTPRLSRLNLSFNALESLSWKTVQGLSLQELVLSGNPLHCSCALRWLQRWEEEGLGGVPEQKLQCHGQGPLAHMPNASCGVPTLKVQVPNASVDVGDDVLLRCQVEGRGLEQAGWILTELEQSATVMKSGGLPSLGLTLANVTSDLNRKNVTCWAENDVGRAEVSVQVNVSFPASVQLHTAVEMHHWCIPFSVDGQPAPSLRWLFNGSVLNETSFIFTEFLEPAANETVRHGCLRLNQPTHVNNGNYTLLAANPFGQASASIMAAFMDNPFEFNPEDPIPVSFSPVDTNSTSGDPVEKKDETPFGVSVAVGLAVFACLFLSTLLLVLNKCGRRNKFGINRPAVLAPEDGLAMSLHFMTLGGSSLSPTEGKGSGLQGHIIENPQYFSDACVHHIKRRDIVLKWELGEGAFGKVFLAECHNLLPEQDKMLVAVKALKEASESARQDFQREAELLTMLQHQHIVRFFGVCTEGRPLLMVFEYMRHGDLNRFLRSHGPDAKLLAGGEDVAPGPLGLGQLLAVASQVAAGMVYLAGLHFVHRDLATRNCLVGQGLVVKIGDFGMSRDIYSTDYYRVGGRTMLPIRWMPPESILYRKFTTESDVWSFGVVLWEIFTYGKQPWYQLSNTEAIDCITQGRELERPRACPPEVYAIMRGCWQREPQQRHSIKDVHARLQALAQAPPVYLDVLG
T5 sequence (Q96GD4 whole entry): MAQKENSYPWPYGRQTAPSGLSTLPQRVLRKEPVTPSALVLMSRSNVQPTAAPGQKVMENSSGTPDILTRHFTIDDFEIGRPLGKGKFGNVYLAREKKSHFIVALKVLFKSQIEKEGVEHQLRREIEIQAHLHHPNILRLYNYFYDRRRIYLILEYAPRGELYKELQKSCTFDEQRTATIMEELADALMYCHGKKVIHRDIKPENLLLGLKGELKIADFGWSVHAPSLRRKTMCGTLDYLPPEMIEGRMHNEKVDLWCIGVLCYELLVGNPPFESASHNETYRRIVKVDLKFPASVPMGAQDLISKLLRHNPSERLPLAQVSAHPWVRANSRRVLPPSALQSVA

With `O=C1Nc2ccccc2/C1=C\c1ccc2c(/C=C/c3ccncc3)n[nH]c2c1` [Example A57, (E)-3-((3-((E)-2-(pyridin-4-yl)vinyl)-1H-indazol-6-yl)methylene)-indolin-2-one], the IC50 at human PLK4, on PDGFRβ, at FGFR1, on KDR, at FLT-1 and at Aurora B was below 5 µM in each case. The IC50 at Lyn, at TRKA, on Ret, at Abl and on Aurora A was below 5 µM throughout. The “Inhibition of HUV-EC-C Cell Tube Formation (percentage of the control tube count)” value with HUV-EC-C cells is given as “anti-agiogenic effects at micromolar concentrations; also recorded: inhibition of HUV-EC-C Cell Tube Formation”. For the same molecule, the inhibition at 10 µM on PLK2 was above 50%.

What is called IC50 is the concentration at which inhibition is half-maximal. As usually defined, the inhibition is the share of the control response that was lost under treatment.
